Source: patent publication US9399626B2, “2-thiopyrimidinones” (Pfizer Inc., priority 2011, dated 2016)
Where a name gives a salt, the structure may show the parent alone.

What follows are molecules tested against T1, MPO (purified from human polynuclear leukocytes) (Homo sapiens, UniProt P05164) (assay: MPO Amplex Red Activity Assay). Conditions: Table 1, 2 μM H2O2, pH 7.4.
T1 construct: purified from human polynuclear leukocytes; purchased Calbiochem/EMD Biosciences; host or cells: human polynuclear leukocytes (natural source)
Type: biochemical
Procedure: MPO Amplex Red Activity Assay.
MPO peroxidase activity was measured by monitoring the formation of resorufin generated from the oxidation of Amplex Red (10-Acetyl-3,7-dihydroxyphenoxazine) (Invitrogen, Carlsbad, Calif.) by MPO (Gomes, Fernandes et al. 2005). Assay mixtures (100 μL total volume) contained 50 mM NaPi pH 7.4, 150 mM NaCl, 1 mM DTPA (diethylenetriaminepentaacetic acid), 2% DMSO, 2 μM H2O2, 30 μM Amplex Red and the reaction was initiated by the addition of […] (purified from human polynuclear leukocytes and purchased from Calbiochem/EMD Biosciences, Gibbstown, N.J.). All assays were performed in 96-well, half-area, black, nonbinding surface, polystyrene plates (Corning) and the production of resorufin (excitation 530 nm, emission 580 nm) was monitored every 20 sec on a Spectramax M2 Microplate Spectrophotometer (Molecular Devices, Palo Alto, Calif.) equipped with Softmax Pro software (Molecular Devices, Palo Alto, Calif.). Reactions to determine the background reaction rate consisted of all assay components and 4 μL of 500 unit/mL bovine catalase (Sigma) in 50 mM KPi pH 7.0. The background rate was subtracted from each reaction progress curve. All data was analyzed using non-linear regression analysis in Microsoft Excel and Kaleidagraph (Synergy Software).
To determine inhibitor potency (kinact/KI) against MPO, the first 600 sec of the reaction progress curves were fit to equation 1, where Vo is the initial rate in RFU/sec and t is time in seconds, to obtain the first order rate constant for enzyme inactivation (kobs) at each inhibitor concentration.
[formula] Equation 1 is a variation of the standard equation for slow binding inhibition where the steady state velocity (Vs) is set to zero. Each kobs value was corrected for auto-inactivation of the enzyme by subtracting the kobs value for the uninhibited reaction. The corrected kobs values were then plotted versus inhibitor concentration ([I]) and fit to equation 2
[formula] where kinact is the maximal rate of inactivation and KI is the inhibitor concentration that yields half the rate of maximal inactivation (Copeland 2005).
Table 1 and (1A) below provides the myeloperoxidase inhibitory activity for the Examples below in accordance with the above-described assay.

T1 sequence (P05164 279-745 limits assumed): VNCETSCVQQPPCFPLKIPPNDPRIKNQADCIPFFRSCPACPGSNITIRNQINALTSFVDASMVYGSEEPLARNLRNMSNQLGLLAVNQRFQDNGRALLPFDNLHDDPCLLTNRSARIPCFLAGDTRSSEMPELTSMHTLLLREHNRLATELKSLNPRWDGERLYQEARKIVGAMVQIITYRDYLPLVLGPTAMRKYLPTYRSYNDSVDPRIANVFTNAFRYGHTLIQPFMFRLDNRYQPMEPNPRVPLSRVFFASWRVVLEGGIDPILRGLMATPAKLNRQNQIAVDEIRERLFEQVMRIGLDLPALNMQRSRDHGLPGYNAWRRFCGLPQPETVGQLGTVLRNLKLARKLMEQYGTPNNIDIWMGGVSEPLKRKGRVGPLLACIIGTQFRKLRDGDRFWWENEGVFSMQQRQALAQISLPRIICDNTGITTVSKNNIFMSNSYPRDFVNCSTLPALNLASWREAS
T1 sequence (P05164 165-273 limits assumed): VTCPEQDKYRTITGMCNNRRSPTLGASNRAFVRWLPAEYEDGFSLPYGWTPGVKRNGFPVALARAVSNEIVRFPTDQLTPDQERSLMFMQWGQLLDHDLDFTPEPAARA

Row | SMILES | MPO kinact/Ki
1 | COCCn1c(-c2cccc(C)c2)cc(=O)[nH]c1=S [Example 283, 1-(2-methoxyethyl)-6-(3-methylphenyl)-2-thioxo-2,3-dihydropyrimidin-4(1H)-one] | 2790 1/s per M
2 | COc1ccc(-c2cc(=O)[nH]c(=S)n2CCO)c(OC)n1 [Example 4, 6-(2,6-Dimethoxypyridin-3-yl)-1-(2-hydroxyethyl)-2-thioxo-2,3-dihydropyrimidin-4(1H)-one] | 8790 1/s per M
3 | COc1cccc(-c2cc(=O)[nH]c(=S)n2CCN)c1 [Example 264, 1-(2-aminoethyl)-6-(3-methoxyphenyl)-2-thioxo-2,3-dihydropyrimidin-4(1H)-one hydrochloride] | 3620 1/s per M
4 | COCCn1c(-c2ccc(C)nc2OC)cc(=O)[nH]c1=S [Example 50, 1-(2-methoxyethyl)-6-(2-methoxy-6-methylpyridin-3-yl)-2-thioxo-2,3-dihydropyrimidin-4(1H)-one] | 2610 1/s per M
5 | COc1ccc(-c2cc(=O)[nH]c(=S)n2CCC(=O)O)c(OC)c1 [Example 193, 3-[6-(2,4-dimethoxyphenyl)-4-oxo-2-thioxo-3,4-dihydropyrimidin-1(2H)-yl]propanoic acid] | 458 1/s per M
6 | CCOc1ccccc1-c1cc(=O)[nH]c(=S)n1CCOC(C)C [Example 104, 6-(2-ethoxyphenyl)-1-(2-isopropoxyethyl)-2-thioxo-2,3-dihydropyrimidin-4(1H)-one] | 1210 1/s per M
7 | COCCn1c(-c2ccc(OC)cc2F)cc(=O)[nH]c1=S [Example 316, 6-(2-fluoro-4-methoxyphenyl)-1-(2-methoxyethyl)-2-thioxo-2,3-dihydropyrimidin-4(1H)-one] | 3060 1/s per M
8 | COc1cc(OC)c(-c2cc(=O)[nH]c(=S)n2CCN)cc1OC [Example 198, 1-(2-aminoethyl)-2-thioxo-6-(2,4,5-trimethoxyphenyl)-2,3-dihydropyrimidin-4(1H)-one hydrochloride] | 8460 1/s per M
9 | NC(=O)Cn1c(-c2ccccc2OC(F)(F)F)cc(=O)[nH]c1=S [Example 208, 2-{4-oxo-2-thioxo-6-[2-(trifluoromethoxy)phenyl]-3,4-dihydropyrimidin-1(2H)-yl}acetamide] | 3760 1/s per M
10 | COCCn1c(-c2ccccc2SC)cc(=O)[nH]c1=S [Example 55, 1-(2-methoxyethyl)-6-[2-(methylthio)phenyl]-2-thioxo-2,3-dihydropyrimidin-4(1H)-one] | 7740 1/s per M
11 | COc1cc(F)ccc1-c1cc(=O)[nH]c(=S)n1CCO [Example 27, 6-(4-fluoro-2-methoxyphenyl)-1-(2-hydroxyethyl)-2-thioxo-2,3-dihydropyrimidin-4(1H)-one] | 15800 1/s per M
12 | COc1ccc(-c2cc(=O)[nH]c(=S)n2CC(O)CN)c(OC)c1 (centres unmarked) [Example 199, 1-(3-amino-2-hydroxypropyl)-6-(2,4-dimethoxyphenyl)-2-thioxo-2,3-dihydropyrimidin-4(1H)-one hydrochloride] | 9080 1/s per M
13 | NCCCn1c(-c2cc3ccccc3s2)cc(=O)[nH]c1=S [Example 71, 1-(3-aminopropyl)-6-(1-benzothien-2-yl)-2-thioxo-2,3-dihydropyrimidin-4(1H)-one hydrochloride] | 3570 1/s per M
14 | COc1ccc(-c2cc(=O)[nH]c(=S)n2CCNCC(=O)O)c(OC)c1 [Example 243, N-{2-[6-(2,4-dimethoxyphenyl)-4-oxo-2-thioxo-3,4-dihydropyrimidin-1(2H)-yl]ethyl}glycine hydrochloride] | 952 1/s per M
15 | COc1ncc(Cl)cc1-c1cc(=O)[nH]c(=S)n1CCO [Example 65, 6-(5-chloro-2-methoxypyridin-3-yl)-1-(2-hydroxyethyl)-2-thioxo-2,3-dihydropyrimidin-4(1H)-one] | 7940 1/s per M
16 | COc1ccc(-c2cc(=O)[nH]c(=S)n2CCNc2ncc[nH]2)c(OC)c1 [Example 249, 6-(2,4-dimethoxyphenyl)-1-[2-(1H-imidazol-2-ylamino)ethyl]-2-thioxo-2,3-dihydropyrimidin-4(1H)-one] | 1050 1/s per M
17 | COc1cc(OC)c(-c2cc(=O)[nH]c(=S)n2CCN)cc1Cl [Example 111, 1-(2-aminoethyl)-6-(5-chloro-2,4-dimethoxyphenyl)-2-thioxo-2,3-dihydropyrimidin-4(1H)-one hydrochloride] | 10300 1/s per M
18 | COc1ccc(-c2cc(=O)[nH]c(=S)n2CCOC(C)C)c(OC)c1 [Example 226, 6-(2,4-dimethoxyphenyl)-1-(2-isopropoxyethyl)-2-thioxo-2,3-dihydropyrimidin-4(1H)-one] | 6280 1/s per M
19 | NC(=O)Cn1c(-c2ccc3c(c2)CCO3)cc(=O)[nH]c1=S [Example 37, 2-[6-(2,3-dihydro-1-benzofuran-5-yl)-4-oxo-2-thioxo-3,4-dihydropyrimidin-1(2H)-yl]acetamide] | 6460 1/s per M
20 | COc1ccc(-c2cc(=O)[nH]c(=S)n2Cc2ncccn2)c(OC)c1 [Example 234, 6-(2,4-dimethoxyphenyl)-1-(pyrimidin-2-ylmethyl)-2-thioxo-2,3-dihydropyrimidin-4(1H)-one] | 3060 1/s per M
21 | COc1ccc(F)cc1-c1cc(=O)[nH]c(=S)n1CCCN=C(N)N [Example 126, 2-{3-[6-(5-fluoro-2-methoxyphenyl)-4-oxo-2-thioxo-3,4-dihydropyrimidin-1(2H)-yl]propyl} guanidine] | 18200 1/s per M
22 | COc1ccc(-c2cc(=O)[nH]c(=S)n2CC(N)=O)cc1OC [Example 83, 2-[6-(3,4-dimethoxyphenyl)-4-oxo-2-thioxo-3,4-dihydropyrimidin-1(2H)-yl]acetamide] | 3510 1/s per M

More lines, now with the values ahead:

Row | MPO kinact/Ki | SMILES
23 | 1280 1/s per M | COCCn1c(-c2cnc(N(C)C)cc2OC)cc(=O)[nH]c1=S [Example 338, 6-[6-(dimethylamino)-4-methoxypyridin-3-yl]-1-(2-methoxyethyl)-2-thioxo-2,3-dihydropyrimidin-4(1H)-one]
24 | 1160 1/s per M | CNC(=O)c1cccc(-c2cc(=O)[nH]c(=S)n2CCOC)c1 [Example 325, 3-[3-(2-methoxyethyl)-6-oxo-2-thieno-1,2,3,6-tetrahydropyrimidin-4-yl]-N-methylbenzamide]

Same assay, conditions: Table 1A, 2 μM H2O2, pH 7.4

Row | MPO kinact/Ki | SMILES
25 | 6870 1/s per M | NCCNC(=O)Cn1c(-c2cc(Cl)ccc2OCCO)cc(=O)[nH]c1=S [Example 424, N-(2-aminoethyl)-2-{6-[5-chloro-2-(2-hydroxyethoxy)phenyl]-4-oxo-2-thioxo-3,4-dihydropyrimidin-1(2H)-yl}acetamide]
26 | 3530 1/s per M | COc1ccc(-c2cc(=O)[nH]c(=S)n2CC(=O)NCCO)c(OC)c1 [Example 385, 2-[6-(2,4-dimethoxyphenyl)-4-oxo-2-thioxo-3,4-dihydropyrimidin-1(2H)-yl]-N-(2-hydroxyethyl)acetamide]
27 | 3150 1/s per M | COc1ccc(-c2cc(=O)[nH]c(=S)n2CC(N)=O)cc1 [Example 410, 2-[6-(4-methoxyphenyl)-4-oxo-2-thioxo-3,4-dihydropyrimidin-1(2H)-yl]acetamide]
28 | 14200 1/s per M | COc1ccc(-c2cc(=O)[nH]c(=S)n2CCC(=O)NC(=N)N)c(OC)c1 [Example 446, N-carbamimidoyl-3-{6-(2,4-dimethoxyphenyl)-4-oxo-2-thioxo-3,4-dihydropyrimidin-1(2H)-yl]propanamide]
29 | 4600 1/s per M | CNCCCn1c(-c2cc(F)ccc2OC)cc(=O)[nH]c1=S [Example 374, 6-(5-fluoro-2-methoxyphenyl)-1-[3-(methylamino)propyl]-2-thioxo-2,3-dihydropyrimidin-4(1H)-one]
30 | 6200 1/s per M | COc1ccc(-c2cc(=O)[nH]c(=S)n2CC(=O)NCCN)c(OCCO)c1 [Example 404, N-(2-aminoethyl)-2-{6-[2-(2-hydroxyethoxy)-4-methoxyphenyl]-4-oxo-2-thioxo-3,4-dihydropyrimidin-1(2H)-yl}acetamide]
31 | 8740 1/s per M | COC(=O)/N=C(/N)NCCCn1c(-c2cc(Cl)ccc2OC)cc(=O)[nH]c1=S [Example 350, Methyl[amino({3-[6-(5-chloro-2-methoxyphenyl)-4-oxo-2-thioxo-3,4-dihydropyrimidin-1(2H)-yl]propyl}amino)methylidene]carbamate]
32 | 1410 1/s per M | COc1ccc(-c2cc(=O)[nH]c(=S)n2CC(=O)NC(C)(C)CN)c(OC)c1 [Example 432, N-(1-amino-2-methylpropan-2-yl)-2-[6-(2,4-dimethoxyphenyl)-4-oxo-2-thioxo-3,4-dihydropyrimidin-1(2H)-yl]acetamide]
